# How the values were obtained:
# [1] = Healthy volunteer PK studies PN001/PN002 with IR capsules; assay type: in vivo, human; settings: for Cmax: healthy volunteers
# [2] = Food effect: MR2 capsules fed vs fasted; assay type: in vivo, human; settings: MR2 CX-8998, single 8 mg dose
# Text: Subjects will be screened for study eligibility within 28 days before administration of the first dose of study drug. Subjects who meet the study eligibility criteria will be admitted to the clinical research unit in the afternoon of the day before administration of the first dose of study drug (Period 1/Day −1).
# [3] = test system: patients with essential tremor; assay: T-CALM: TETRAS performance subscale (TETRAS-PS); settings: for TETRAS-PS total score, change from baseline to Day 28, LS mean difference from placebo (95% CI) / TETRAS-PS total score, change from baseline to Day 28, LS mean (SE): ANCOVA; for TETRAS-PS total score, change from baseline to Day 28, LS mean (SE): multiple imputation
smiles,measurement,setting,value
CC(C)c1ccc(CC(=O)N[C@H](C)c2ccc(OCC(F)(F)F)cn2)cc1 [CX-8998],AUCinf,"[1]; PN002 Part 1, 18 mg, 1 dose",18.5 µM·h
same,Cmax,"[1]; PN002 Part 1, 18 mg, 1 dose",1330 nM
same,AUC0-24,"[1]; PN002 Part 2, 12 mg, 1 dose",4.99 µM·h
same,AUCinf,"[1]; PN002 Part 2, 12 mg, 1 dose",7.31 µM·h
same,Cmax,"[1]; PN002 Part 2, 12 mg, 1 dose",798 nM
same,dose proportionality of plasma profiles,"[1]; immediate release capsules, human subjects",dose proportional in the 2-18 mg dose range
same,effect of fed state on overall exposure (AUC),[2],does not appear to significantly impact overall exposure
same,effect of fed vs fasted state on absorption,[2],"impacts early absorption of the CX-8998, but does not appear to significantly impact late absorption"
same,"responders: improvement of at least 5 points by TETRAS-PS score, %",[3]; Day 15,(30.8%)
same,"TETRAS-PS change from baseline 0 change: subjects, number (%)","[3]; Day 15, N = 39",2 (5.1%)
same,"TETRAS-PS change from baseline >0 to 1 point improvement: subjects, number (%)","[3]; Day 15, N = 39",3 (7.7%)
same,"TETRAS-PS change from baseline >0 to 1 point worsening: subjects, number (%)","[3]; Day 15, N = 39",2 (5.1%)
same,"TETRAS-PS change from baseline >1 to 2.5 point improvement: subjects, number (%)","[3]; Day 15, N = 39",4 (10.3%)
same,"TETRAS-PS change from baseline >1 to 2.5 point worsening: subjects, number (%)","[3]; Day 15, N = 39",5 (12.8%)
same,"TETRAS-PS change from baseline >2.5 to 5 point improvement: subjects, number (%)","[3]; Day 15, N = 39",10 (25.6%)
same,"TETRAS-PS change from baseline >2.5 to 5 point worsening: subjects, number (%)","[3]; Day 15, N = 39",2 (5.1%)
same,"TETRAS-PS change from baseline >5 to 10 point improvement: subjects, number (%)","[3]; Day 15, N = 39",8 (20.5%)
same,"TETRAS-PS change from baseline >5 to 10 point worsening: subjects, number (%)","[3]; Day 15, N = 39",0
same,"TETRAS-PS change from baseline >10 point improvement: subjects, number (%)","[3]; Day 15, N = 39",3 (7.7%)
same,"TETRAS-PS change from baseline >10 point worsening: subjects, number (%)","[3]; Day 15, N = 39",0
same,"responders: improvement of at least 5 points by TETRAS-PS score, %",[3]; Day 28,(43.2%)
same,"responders: improvement of at least 5 points by TETRAS-PS score, number","[3]; Day 28, N 37",16
same,"TETRAS-PS change from baseline 0 change: subjects, number (%)","[3]; Day 28, N = 37",1 (2.6%)
same,"TETRAS-PS change from baseline >0 to 1 point improvement: subjects, number (%)","[3]; Day 28, N = 37",6 (15.4%)
same,"TETRAS-PS change from baseline >0 to 1 point worsening: subjects, number (%)","[3]; Day 28, N = 37",2 (5.1%)
same,"TETRAS-PS change from baseline >1 to 2.5 point improvement: subjects, number (%)","[3]; Day 28, N = 37",5 (12.8%)
same,"TETRAS-PS change from baseline >1 to 2.5 point worsening: subjects, number (%)","[3]; Day 28, N = 37",1 (2.6%)
same,"TETRAS-PS change from baseline >2.5 to 5 point improvement: subjects, number (%)","[3]; Day 28, N = 37",11 (28.2%)
same,"TETRAS-PS change from baseline >2.5 to 5 point worsening: subjects, number (%)","[3]; Day 28, N = 37",1 (2.6%)
same,"TETRAS-PS change from baseline >5 to 10 point improvement: subjects, number (%)","[3]; Day 28, N = 37",8 (20.5%)
same,"TETRAS-PS change from baseline >5 to 10 point worsening: subjects, number (%)","[3]; Day 28, N = 37",0
same,"TETRAS-PS change from baseline >10 point improvement: subjects, number (%)","[3]; Day 28, N = 37",4 (10.3%)
same,"TETRAS-PS change from baseline >10 point worsening: subjects, number (%)","[3]; Day 28, N = 37",0
same,"TETRAS-PS scored by investigators (in person), change from baseline, LS mean (±SE)","[3]; Day 28, analysis of Example 25",−4.8±0.80
same,"TETRAS-PS scored by independent video raters, change from baseline, LS mean (±SE)","[3]; Day 28, primary endpoint",−1.8±0.81
same,"TETRAS-PS total score, Mean (SD)","[3]; Day 28, Investigator Rated",23.6 (5.50)
same,"TETRAS-PS total score, change from baseline to Day 28, Mean (SD)",[3]; Independent Video Raters,−1.6 (4.36)
same,"TETRAS-PS total score, change from baseline to Day 28, Median",[3]; Independent Video Raters,−1.5
same,"TETRAS-PS total score, change from baseline to Day 28, LS mean difference from placebo (95% CI)",[3]; Independent Video Raters,"0.5 (−1.5, 2.5)"
same,"TETRAS-PS total score, change from baseline to Day 28, LS mean (SE)",[3]; Independent Video Raters,−1.8 (0.81)
same,"TETRAS-PS total score, change from baseline to Day 28, LS mean difference from placebo (95% CI)",[3]; Investigator Rated,"−2.0 (−4.0, 0.0)"
same,"TETRAS-PS total score, change from baseline to Day 28, LS mean (SE)",[3]; Investigator Rated,−4.8 (0.80)
same,"TETRAS-PS total score, change from baseline to Day 28, Mean (SD)","[3]; subgroup No Concurrent Tremor Medication at Day 1, Independent Video Raters",−2.5 (5.33)

# From US12383539B2 (Cavion, Inc., priority 2018, dated 2025)
